molecular target: T1, cholesterol esterase (Bos taurus, UniProt P30122); assay: Cholesterol esterase catalyzed hydrolysis of esters, relative rate by pH stat; format: biochemical; settings: commercial cholesterol esterase, 0.1 N NaOH to hold pH 7.0, emulsion of ester (1.0 mmol) in ethyl ether (10 mL) and 10 mM phosphate buffer pH 7.0 with 30 mg sodium taurocholate
T1 construct: assayed with taurocholate in ether/phosphate emulsion
T1 sequence (P30122 19-597): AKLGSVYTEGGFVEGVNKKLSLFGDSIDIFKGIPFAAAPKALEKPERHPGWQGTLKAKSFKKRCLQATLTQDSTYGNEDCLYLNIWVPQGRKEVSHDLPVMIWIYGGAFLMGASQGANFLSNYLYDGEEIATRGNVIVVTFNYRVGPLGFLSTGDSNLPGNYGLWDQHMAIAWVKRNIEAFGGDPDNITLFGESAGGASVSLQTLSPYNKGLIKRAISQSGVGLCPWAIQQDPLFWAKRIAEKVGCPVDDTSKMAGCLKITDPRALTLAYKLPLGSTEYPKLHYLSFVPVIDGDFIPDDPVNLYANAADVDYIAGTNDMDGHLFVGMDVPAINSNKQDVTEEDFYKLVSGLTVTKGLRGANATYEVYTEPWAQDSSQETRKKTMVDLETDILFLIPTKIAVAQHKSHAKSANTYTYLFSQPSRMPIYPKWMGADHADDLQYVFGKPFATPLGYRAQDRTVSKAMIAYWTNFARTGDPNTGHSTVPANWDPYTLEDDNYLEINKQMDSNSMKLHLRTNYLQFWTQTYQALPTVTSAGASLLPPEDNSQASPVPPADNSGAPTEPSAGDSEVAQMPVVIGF
Procedure: In similar manner as Example 2 commercial samples of cholesterol esterase are shown to catalyze the enantiospecific hydrolysis of diesters of 1,1'-bi-2-naphthol listed in the following Table.
^(a) The relative rate of hydrolysis is measured using a pH stat whic
measures the amount of base (0.1 N NaOH) required to maintain the pH at
7.0 for an emulsion of ester (1.0 mmol) dissolved in ethyl ether (10
milliliter) and aqueous buffer (10 milliliters of 10 mM phosphate, pH 7.0
containing 30 milligrams sodium taurocholate).

Row | Compound | Relative Rate (relative rate of hydrolysis)
1 | CC(=O)O[C@H]1CC[C@@]2(C)C(=CC[C@H]3[C@@H]4CC[C@H]([C@H](C)CCCC(C)C)[C@@]4(C)CC[C@@H]32)C1 [reference compound] | 1.0
2 | CCCCCC(=O)Oc1ccc2ccccc2c1-c1c(OC(=O)CCCCC)ccc2ccccc12 [hexanoate] | 0.5
3 | CCC(=O)Oc1ccc2ccccc2c1-c1c(OC(=O)CC)ccc2ccccc12 | 1.1
4 | CCCCCCCC(=O)Oc1ccc2ccccc2c1-c1c(OC(=O)CCCCCCC)ccc2ccccc12 [octanoate] | 0.4

Next, values leading:

Row | Relative Rate (relative rate of hydrolysis) | Compound
5 | 1.1 | CC(=O)Oc1ccc2ccccc2c1-c1c(OC(C)=O)ccc2ccccc12 [acetate]
6 | 0.5 | CCCC(=O)Oc1ccc2ccccc2c1-c1c(OC(=O)CCC)ccc2ccccc12 [Butyrate]

Reference: US4879421A, “Method for preparing optically active binaphthol and spiroibiindanol” (General Electric Company, priority 1988, dated 1989)
